Usually inhibition stands for the drop in the measured response relative to a control, in per cent.

The record followed here is ChEMBL document CHEMBL3880421, “Indazole compounds and pharmaceutical compositions for inhibiting protein kinases, and methods for their use” (2003).

Assay [1] is described as follows: Antiproliferative activity against VEGF-stimulated HUVEC cells assessed as reduction in cell viability at 0.5 nM preincubated for 1 hr followed by addition of VEGF measured after 72 hrs by MTT assay. Type of assay: functional. The following applies: Homo sapiens. On the technique in general: Formazan colour is commonly taken as a measure of viable cells.
Assay [2] in a line: Antiproliferative activity against VEGF-stimulated HUVEC cells assessed as reduction in cell viability at 2 nM preincubated for 1 hr followed by addition of VEGF measured after 72 hrs by MTT assay. Type of assay: functional. The following applies: Homo sapiens.

Regarding `O=C(NOCc1ccccc1)c1ccccc1Nc1ccc2c(/C=C/c3ccccn3)n[nH]c2c1`, the inhibition at 0.0005 µM in assay [1] fell in the range of 70 to 74%. Besides, the inhibition at 0.002 µM in assay [2] lay within 101 to 111%.

As to `COC[C@@H]1CCCN1NC(=O)c1ccccc1Nc1ccc2c(/C=C/c3ccccn3)n[nH]c2c1`, in assay [1], the inhibition at 0.0005 µM was found to be 13%. In addition, in assay [2], the inhibition at 0.002 µM is 7%.

For the compound `O=C(N[C@@H]1CCCC[C@@H]1O)c1ccccc1Nc1ccc2c(/C=C/c3ccccn3)n[nH]c2c1`, in assay [1], the inhibition at 0.0005 µM was 26%. Further, the inhibition at 0.002 µM in assay [2] was found to be 59%.

For the compound `CCN(CC)CCCNC(=O)c1ccccc1Nc1ccc2c(/C=C/c3ccccn3)n[nH]c2c1`, the inhibition at 0.0005 µM in assay [1] was 31%. In addition, the inhibition at 0.002 µM in assay [2] is -1%.

Turning to `O=C(NCc1cccnc1)c1ccccc1Nc1ccc2c(/C=C/c3ccccn3)n[nH]c2c1`, the inhibition at 0.0005 µM in assay [1] turned out to be 30%. In addition, in assay [2], the inhibition at 0.002 µM was 78%.

As for `O=C(NCCN1CCCCC1)c1ccccc1Nc1ccc2c(/C=C/c3ccccn3)n[nH]c2c1`, the inhibition at 0.0005 µM in assay [1] turned out to be 5%. In addition, the inhibition at 0.002 µM in assay [2] came to 19%.

On to `O=C(NCC(O)CO)c1ccccc1Nc1ccc2c(/C=C/c3ccccn3)n[nH]c2c1` (stereo unspecified), for which the inhibition at 0.0005 µM in assay [1] is 22%. In assay [2], the inhibition at 0.002 µM was 20%.

Take `C[C@H](CO)NC(=O)c1ccccc1Nc1ccc2c(/C=C/c3ccccn3)n[nH]c2c1`: the inhibition at 0.0005 µM in assay [1] worked out at 13%. The inhibition at 0.002 µM in assay [2] turned out to be 20%.

Regarding `O=C(NC1CCN(Cc2ccccc2)CC1)c1ccccc1Nc1ccc2c(/C=C/c3ccccn3)n[nH]c2c1`, in assay [1], the inhibition at 0.0005 µM came to 44%. Also, the inhibition at 0.002 µM in assay [2] is 19%.

For the compound `O=C(NCCNc1ccccc1)c1ccccc1Nc1ccc2c(/C=C/c3ccccn3)n[nH]c2c1`, the inhibition at 0.0005 µM in assay [1] came out at 19%. In assay [2], the inhibition at 0.002 µM amounted to 89%.

As for `O=C(NCCS(=O)(=O)O)c1ccccc1Nc1ccc2c(/C=C/c3ccccn3)n[nH]c2c1`, in assay [1], the inhibition at 0.0005 µM was 16%. For the same compound, the inhibition at 0.002 µM in assay [2] is 21%.

For the compound `O=C(NCC(c1ccccc1)c1ccccc1)c1ccccc1Nc1ccc2c(/C=C/c3ccccn3)n[nH]c2c1`, in assay [1], the inhibition at 0.0005 µM turned out to be 11%. The inhibition at 0.002 µM in assay [2] amounted to 15%.

`O=C(NO)c1ccccc1Nc1ccc2c(/C=C/c3ccccn3)n[nH]c2c1`: the inhibition at 0.0005 µM in assay [1] came to 7%. The inhibition at 0.002 µM in assay [2] came out at 25%.

On to `O=C(NCCCN1CCCCC1)c1ccccc1Nc1ccc2c(/C=C/c3ccccn3)n[nH]c2c1`, for which the inhibition at 0.0005 µM in assay [1] came out at 16%. Besides, the inhibition at 0.002 µM in assay [2] came to 7%.

As for `C=C(C)CNC(=O)c1ccccc1Nc1ccc2c(/C=C/c3ccccn3)n[nH]c2c1`, in assay [1], the inhibition at 0.0005 µM worked out at 65%. For the same compound, the inhibition at 0.002 µM in assay [2] was found to be 110%.

Consider `O=C(NCCc1cccnc1)c1ccccc1Nc1ccc2c(/C=C/c3ccccn3)n[nH]c2c1`, for which the inhibition at 0.0005 µM in assay [1] was 23%. For the same compound, the inhibition at 0.002 µM in assay [2] worked out at 61%.

With `O=C(NCC1CC1)c1ccccc1Nc1ccc2c(/C=C/c3ccccn3)n[nH]c2c1`, the inhibition at 0.0005 µM in assay [1] fell in the range of 25 to 35%. The inhibition at 0.002 µM in assay [2] fell in the range of 53 to 69%.

For the compound `CCN1CC(NC(=O)c2ccccc2Nc2ccc3c(/C=C/c4ccccn4)n[nH]c3c2)CN1CC`, in assay [1], the inhibition at 0.0005 µM worked out at 2%. For the same compound, in assay [2], the inhibition at 0.002 µM is -19%.

As to `O=C(NCCN(CCO)CCO)c1ccccc1Nc1ccc2c(/C=C/c3ccccn3)n[nH]c2c1`, the inhibition at 0.0005 µM in assay [1] is 10%. Also, the inhibition at 0.002 µM in assay [2] stood at 23%.

Consider `CSCCCNC(=O)c1ccccc1Nc1ccc2c(/C=C/c3ccccn3)n[nH]c2c1`, for which, in assay [1], the inhibition at 0.0005 µM was 44%. The inhibition at 0.002 µM in assay [2] turned out to be 100%.

In the case of `CC(CCc1ccccc1)NC(=O)c1ccccc1Nc1ccc2c(/C=C/c3ccccn3)n[nH]c2c1` (stereo unspecified), in assay [1], the inhibition at 0.0005 µM came to 50%. For the same compound, the inhibition at 0.002 µM in assay [2] was 40%.

As to `CC(O)CNC(=O)c1ccccc1Nc1ccc2c(/C=C/c3ccccn3)n[nH]c2c1` (stereo unspecified), the inhibition at 0.0005 µM in assay [1] stood at 38%. Further, the inhibition at 0.002 µM in assay [2] is 2%.

Turning to `CC1CC(NC(=O)c2ccccc2Nc2ccc3c(/C=C/c4ccccn4)n[nH]c3c2)CC(C)(C)C1` (stereo unspecified), the inhibition at 0.0005 µM in assay [1] came to 25%. For the same compound, the inhibition at 0.002 µM in assay [2] was 31%.
